We go through 20 compounds from US8492559B2, “Substituted indole compounds” (Gruenenthal GmbH, priority 2009, dated 2013).

In one test the target is T1, B1R receptor of the rat (rB1R) (Rattus norvegicus, UniProt P97583).
T1 construct: expressed in transfected cells; host or cells: CHO K1 cells
T1 sequence (P97583 1-337): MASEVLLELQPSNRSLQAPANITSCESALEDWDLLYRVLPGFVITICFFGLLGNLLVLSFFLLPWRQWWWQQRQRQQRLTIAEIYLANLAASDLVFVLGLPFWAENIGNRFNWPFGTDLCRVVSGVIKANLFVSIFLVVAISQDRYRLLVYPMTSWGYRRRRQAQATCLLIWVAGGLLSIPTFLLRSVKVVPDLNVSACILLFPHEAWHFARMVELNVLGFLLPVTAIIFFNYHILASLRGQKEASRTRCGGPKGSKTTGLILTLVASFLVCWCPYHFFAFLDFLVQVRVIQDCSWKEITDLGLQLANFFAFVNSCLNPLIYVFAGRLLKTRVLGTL
Kind of test: Functional investigation on the bradykinin 1 receptor (B1R), FLIPR Ca2+ assay, rB1R cells. Type of test: cell-based. Conditions: 10 μM test substance; CHO K1 cells with rat B1R; agonist Des-Arg9 bradykinin; % of maximum achievable inhibition; 10 µM. A digest of the protocol: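 Ca2+ influx is measured as peak Fluo-4 fluorescence in a FLIPR protocol with two substance additions, following Lys-Des-[MUT] bradykinin (0.5 nM) or Des-[MUT] bradykinin (100 nM) challenge. Varying antagonist concentrations give % inhibition relative to maximum achievable and an IC50. Determinations in duplicate or triplicate, repeated independently (N>=2).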
`COc1cc(C)c(S(=O)(=O)Nc2cccc3ccn(CC(=O)N4CCC(Oc5ccncc5)CC4)c23)c(C)c1` [Compound G-03, 4-Methoxy-2,6-dimethyl-N-[1-[2-oxo-2-(4-pyridin-4-yloxy-piperidin-1-yl)-ethyl]-1H-indol-7-yl]-benzenesulfonic acid amide]: the “B1R antagonism, rat [10 μM] % inhibition” value came out at 90%.

Still in this test, the particulars now being: CHO-K1, 10 μM test substance; CHO K1 cells with rat B1R; agonist Des-Arg9 bradykinin; % of maximum achievable inhibition; read-out: B1R antagonism, rat [10 μM] % inhibition.
Broadly, the inhibition is the relative decrease from the control value, in per cent. Take `COc1cc(C)c(S(=O)(=O)Nc2ccc3ccn(CC(=O)N4CC5CC4CN5Cc4ccc(F)cc4)c3c2)c(C)c1` (centres unmarked) [G_CC-33, N-[1-[2-[2-[(4-Fluorophenyl)-methyl]-2,5-diazabicyclo[2.2.1]heptan-5-yl]-2-oxo-ethyl]-1H-indol-6-yl]-4-methoxy-2,6-dimethyl-benzenesulfonic acid amide]: the inhibition at 10 µM turned out to be 71%. In the case of `COc1cc(C)c(S(=O)(=O)Nc2ccc3ccn(CCC(=O)N(C)CCCN4CCN(c5ccncc5)CC4)c3c2)c(C)c1` [G_CC-116, 3-[6-[[(4-Methoxy-2,6-dimethyl-phenyl)sulfonyl]amino]-1H-indol-1-yl]-N-methyl-N-[3-(4-pyridin-4-yl-piperazin-1-yl)-propyl]-propionamide], the inhibition at 10 µM stood at 74%. `COc1cc(C)c(S(=O)(=O)Nc2ccc3ccn(CC(=O)N4CCN(c5ncccn5)CC4)c3c2)c(C)c1` [G_CC-3, 4-Methoxy-2,6-dimethyl-N-[1-[2-oxo-2-(4-pyrimidin-2-yl-piperazin-1-yl)-ethyl]-1H-indol-6-yl]-benzenesulfonic acid amide]: the inhibition at 10 µM was 82%.

Turning to `COc1cc(C)c(S(=O)(=O)Nc2cccc3ccn(CCC(=O)N(C)CCCN4CCC(c5ccccc5)(N(C)C)CC4)c23)c(C)c1` [G_CC-49, N-[3-(4-Dimethylamino-4-phenyl-piperidin-1-yl)-propyl]-3-[7-[[(4-methoxy-2,6-dimethyl-phenyl)sulfonyl]amino]-1H-indol-1-yl]-N-methyl-propionamide], the inhibition at 10 µM was found to be 92%. On the same count and under the same terms, under `O=C(Cn1ccc2ccc(N3Cc4cccc(Cl)c4C3=O)cc21)NCCC1CCN(c2ccncc2)CC1` [G_CC-103, 2-[6-(4-Chloro-3-oxo-1,2-dihydro-isoindol-2-yl)-1H-indol-1-yl]-N-[2-(1-pyridin-4-yl-piperidin-4-yl)-ethyl]-acetamide] stands 88%; under `CCN1CCN(CCCNC(=O)CCn2ccc3cccc(NS(=O)(=O)c4c(C)cc(OC)cc4C)c32)CC1` [G_CC-56, N-[3-(4-Ethyl-piperazin-1-yl)-propyl]-3-[7-[[(4-methoxy-2,6-dimethyl-phenyl)sulfonyl]amino]-1H-indol-1-yl]-propionamide], 54%; under `COc1cc(C)c(S(=O)(=O)Nc2ccc3ccn(CC(=O)N4CCC(OCCN5CCCC5)(c5cccnc5)CC4)c3c2)c(C)c1` [G_CC-57, 4-Methoxy-2,6-dimethyl-N-[1-[2-oxo-2-[4-pyridin-3-yl-4-(2-pyrrolidin-1-yl-ethoxy)-piperidin-1-yl]-ethyl]-1H-indol-6-yl]-benzenesulfonic acid amide], 100%. On the same count and under the same terms, the value for `COc1cc(C)c(S(=O)(=O)Nc2cccc3ccn(CCC(=O)N4CCC(c5ccccc5)(N(C)C)CC4)c23)c(C)c1` [G_CC-48, N-[1-[3-(4-Dimethylamino-4-phenyl-piperidin-1-yl)-3-oxo-propyl]-1H-indol-7-yl]-4-methoxy-2,6-dimethyl-benzenesulfonic acid amide] was 59%; that for `Cc1cc(S(=O)(=O)Nc2ccc3ccn(CCC(=O)NCCC4CCN(c5ccncc5)CC4)c3c2)c(C)cc1Cl` [G_CC-71, 3-[6-[[(4-Chloro-2,5-dimethyl-phenyl)sulfonyl]amino]-1H-indol-1-yl]-N-[2-(1-pyridin-4-yl-piperidin-4-yl)-ethyl]-propionamide] was 54%; that for `CN(CCCN1CCC(c2ccccc2)(N(C)C)CC1)C(=O)Cn1ccc2cccc(NS(=O)(=O)c3cccc4ccccc34)c21` [G_CC-16, N-[3-(4-Dimethylamino-4-phenyl-piperidin-1-yl)-propyl]-N-methyl-2-[7-[(naphthalen-1-ylsulfonyl)amino]-1H-indol-1-yl]-acetamide] was 67%. Same read-out and setting: the value for `COc1cc(C)c(S(=O)(=O)Nc2cccc3ccn(CC(=O)N(C)CCCN4CCC(c5ccccc5)(N(C)C)CC4)c23)c(C)c1` [G_CC-14, N-[3-(4-Dimethylamino-4-phenyl-piperidin-1-yl)-propyl]-2-[7-[[(4-methoxy-2,6-dimethyl-phenyl)sulfonyl]amino]-1H-indol-1-yl]-N-methyl-acetamide] was 86%; that for `COc1cc(C)c(S(=O)(=O)Nc2ccc3ccn(CCC(=O)N4CCC5(CC4)CCN(c4ccncc4)CC5)c3c2)c(C)c1` [G_CC-35, 4-Methoxy-2,6-dimethyl-N-[1-[3-oxo-3-(3-pyridin-4-yl-3,9-diazaspiro[5.5]undecan-9-yl)-propyl]-1H-indol-6-yl]-benzenesulfonic acid amide] was 72%. As for `CN1CCC(CN2CCN(C(=O)CCn3ccc4ccc(N5Cc6cccc(Cl)c6C5=O)cc43)CC2)CC1` [G_CC-64, 7-Chloro-2-[1-[3-[4-[(1-methyl-piperidin-4-yl)-methyl]-piperazin-1-yl]-3-oxo-propyl]-1H-indol-6-yl]-2,3-dihydro-isoindol-1-one], the inhibition at 10 µM was found to be 89%. Same read-out and setting: under `Cc1cc(S(=O)(=O)Nc2cccc3ccn(CCC(=O)N4CCC(N5CCN(C)CC5)CC4)c23)c(C)cc1Cl` [G_CC-61, 4-Chloro-2,5-dimethyl-N-[1-[3-[4-(4-methyl-piperazin-1-yl)-piperidin-1-yl]-3-oxo-propyl]-1H-indol-7-yl]-benzenesulfonic acid amide] stands 79%.

As for `COc1cc(C)c(S(=O)(=O)Nc2cccc3ccn(CC(=O)N(C)CCC4CCC(c5ccccc5)(N(C)C)CC4)c23)c(C)c1` (centres unmarked) [G_CC-77, N-[2-(4-Dimethylamino-4-phenyl-cyclohexyl)-ethyl]-2-[7-[[(4-methoxy-2,6-dimethyl-phenyl)sulfonyl]amino]-1H-indol-1-yl]-N-methyl-acetamide], the inhibition at 10 µM came to 104%. Consider `COc1cc(C)c(S(=O)(=O)Nc2cccc3ccn(CC(=O)N(C)CCN4CCC(c5cccc(F)c5)(N5CCN(C)CC5)CC4)c23)c(C)c1` [G_CC-102, N-[2-[4-(3-Fluorophenyl)-4-(4-methyl-piperazin-1-yl)-piperidin-1-yl]-ethyl]-2-[7-[[(4-methoxy-2,6-dimethyl-phenyl)sulfonyl]amino]-1H-indol-1-yl]-N-methyl-acetamide], for which the inhibition at 10 µM was 89%.

For `COc1cc(C)c(S(=O)(=O)Nc2cccc3ccn(CC(=O)N4CCC5(CC4)CCN(c4ccc(F)cc4)C5=O)c23)c(C)c1` [G_CC-12, N-[1-[2-[3-(4-Fluorophenyl)-4-oxo-3,8-diazaspiro[4.5]decan-8-yl]-2-oxo-ethyl]-1H-indol-7-yl]-4-methoxy-2,6-dimethyl-benzenesulfonic acid amide], the inhibition at 10 µM worked out at 58%. On the same count and under the same terms, under `COc1cc(C)c(S(=O)(=O)Nc2cccc3ccn(CC(=O)NCCN4CCC(c5cccs5)(N(C)C)CC4)c23)c(C)c1` [G_CC-19, N-[2-(4-Dimethylamino-4-thiophen-2-yl-piperidin-1-yl)-ethyl]-2-[7-[[(4-methoxy-2,6-dimethyl-phenyl)sulfonyl]amino]-1H-indol-1-yl]-acetamide] stands 68%. Same read-out and setting: under `Cc1cc(S(=O)(=O)Nc2ccc3ccn(CC(=O)N4CCC5(CC4)CCN(c4ccncc4)CC5)c3c2)c(C)cc1Cl` [G_CC-36, 4-Chloro-2,5-dimethyl-N-[1-[2-oxo-2-(3-pyridin-4-yl-3,9-diazaspiro[5.5]undecan-9-yl)-ethyl]-1H-indol-6-yl]-benzenesulfonic acid amide] stands 63%.
